The record followed here is patent US20230111672A1, “COMPOSITIONS AND METHODS FOR PRODUCTION OF RECOMBINANT ADENO-ASSOCIATED VIRUS” (The Regents of the University of California, priority 2020, published 2023).

Common to all, as to assay type: cell-based, human
For assay [1], the system named is HEK 293T cells. Briefly: Cell cycle arrest by thymidine treatment, flow cytometry with DAPI or EdU incorporation. To be noted: 4 mM thymidine, 24 hrs post treatment. As to the method: HEK 293T cells were treated with thymidine and analyzed using flow cytometry with DAPI (4′,6-diamidino-2-phenylindole) or EdU (5-ethynyl-2′-deoxyuridine) incorporation at 24 hrs post treatment.
FIG. 1A-1B. Verification of cell cycle arrest by thymidine treatment. HEK293T cells were split into 10 cm′ cell culture dishes at 3.0e6 cells/plate. Thymidine stock was prepared with molecular biology grade distilled water at a concentration of 200 mM. The final concentration of thymidine in the culture medium was 4 mM. Two hrs before harvest, cells were incubated with EdU and were harvested for flow cytometry. DAPI staining and EdU assay were performed in accordance with the manufacturer's protocol.

In assay [2] the test system is HEK293T cells. Briefly: Total cell count prior to harvesting the cell pellet, rAAV packaging cultures. To be noted: counted prior to harvest at 72 hrs post transfection. As to the method: (§1) The effect of thymidine treatment for rAAV packaging was assessed with the following description. rAAV manufacturing in HEK293T cells was achieved by transfecting cells with the transgene (ss-CAG-eGFP), the adenoviral helper plasmid pHelper, and rAAV2(Rep/Cap) helper plasmid in accordance with the standard protocol of PEI (polyethyleneimine) transfection (Ojala et al. 2018). Thymidine was added onto media without media change at 24 or 48 hrs post transfection and then cell pellets were harvested at 72 hrs post transfection (FIG. 2).
(§2) The number of total cells was counted for the evaluation of cell growth prior to harvesting the cell pellet (FIG. 3A). […] Next, cell lysate samples were incubated with Benzonase as well as DNase to remove residual plasmid, and rAAV titer with or without thymidine treatment was determined by quantitative polymerase chain reaction (qPCR) with specific primers for the transgene, eGFP (FIG. 3B). rAAV titer was then normalized to total cell count to compare viral titers in vg/cell (viral genomes/cell) (FIG. 3C).
FIG. 3A-3C. rAAV titer at 72 h with thymidine treatment. HEK293T cells were split into 10 cm′ cell culture dishes at 3.0×10^6 cells/plate and transfected with the plasmids for rAAV packaging. Cell pellets at 72 hrs post transfection were lysed by freezing and thawing and then incubated with Benzonase, followed by DNase. […]

The test system of assay [3] is HEK293T cells. Briefly: rAAV titer by qPCR at 72 hrs post transfection, rAAV packaging in HEK293T cells. The protocol: as §1, §2
FIG. 3A-3C. rAAV titer at 72 h with thymidine treatment. HEK293T cells were split into 10 cm′ cell culture dishes at 3.0×10^6 cells/plate and transfected with the plasmids for rAAV packaging. Cell pellets at 72 hrs post transfection were lysed by freezing and thawing and then incubated with Benzonase, followed by DNase. Subsequent Proteinase K digestion released AAV genome ssDNA from the AAV vector, which were subjected into qPCR for measuring rAAV genome copy number. Error bars, mean±SD. *P<0.05, (All statistics are the result of a student's two tailed t-test with paired variance).
(In general: Quantitative PCR measures a nucleic acid by following its amplification.)

The test system of assay [4] is HEK293 cells. Briefly: rAAV titer by qPCR at 96 hrs post transfection, rAAV packaging in HEK293 cells. To be noted: HEK293, thymidine added 24 hrs post transfection, harvest at 96 hrs. The protocol:
To assess the generality of the result, HEK293 cells were tested, using a different packaging method than that used for HEK293T cells. HEK293 cells were seeded at high concentration and incubated for 72 hrs to reach 100% confluency and then transfected with plasmids. Thymidine was added 24 hrs post transfection, and pellets were harvested at 96 hrs post transfection (FIG. 4).
FIG. 5. HEK293 Cells were seeded at 1.0×10^5 cell/cm′ into 10 cm′ cell culture dish and transfected with the plasmids for rAAV packaging. Thymidine was treated at 24 hrs post transfection and cell pellets were harvested at 96 hrs post transfection. rAAV titer was measured by qPCR in the same method of FIG. 3. Error bars, mean±SD.

For assay [5], the system named is HEK293T cells. Briefly: rAAV titer following transfection with and without pHelper. To be noted: thymidine added at 24 hrs post transfection, harvest at 72 hrs. The source says: Plasmids containing adenoviral genes that promote AAV replication and vector production, such as pHelper, have previously been essential for rAAV packaging. That is, AAV requires co-infection of helper virus or introduction of a DNA-damaging agent to complete life cycle (Yakobson, Koch, and Winocour 1987; Yalklnoglu et al. 1988), functions that in rAAV manufacturing are typically replaced by transfection with a plasmid such as pHelper. The present disclosure provides the use of thymidine as a replacement for pHelper. The positive control cells were transfected with the three plasmids (AAV vector, AAV helper, pHelper) while the negative control cells were transfected without pHelper. In some samples, thymidine was added at 24 hrs post transfection (FIG. 6).
FIG. 6. HEK293T cells were transfected with plasmids in accordance with the indication and then thymidine was added at 24 hrs post transfection. All cells were harvested at 72 hrs post transfection and rAAV titer were determined. Error bars, mean±SD.

`Cc1cn([C@H]2C[C@H](O)[C@@H](CO)O2)c(=O)[nH]c1=O` [thymidine]: the EdU incorporation entry in assay [1] (EdU 2 hrs before harvest) is “no incorporation has occurred”. Moreover, the “Cell cycle phase of cell population, total DNA stained by DAPI” value in assay [1] (flow cytometry) was “predominantly in the S-phase section”. In assay [2], the “Total cell count vs control group” value was “lower cell count than the control group”. For the same molecule, the “rAAV titer in vg/ml, fold higher than control” value worked out at 2.77 fold in assay [3] (thymidine treatment 24-72h post transfection, qPCR) and 2.19 fold in assay [3] (thymidine treatment 48-72h post transfection, qPCR). In addition, the “rAAV titer, fold higher than that on control cells” value in assay [3] (thymidine treatment 24-72h post transfection, qPCR, basis not printed (second value after vg/ml)) is on record as 5.38 fold. Besides, the “rAAV titer in vg/cell, fold higher than control” value in assay [3] (thymidine treatment 48-72h post transfection, qPCR normalized to total cell count) was found to be 3.52 fold. In assay [4], the “rAAV titer in vg/ml, fold higher than control cells” value came to 1.75 fold. Besides, the “rAAV packaging in the absence of pHelper” value in assay [5] is on record as “rAAV was packaged in the absence of pHelper only when the thymidine was added”.
